Patent US8715749B2, “Products containing polyphenol(s) and L-arginine” (priority 1998, dated 2014)
“Also recorded” adds a separate entry of the source.

Legend:
[1] = system: Human umbilical vein endothelial cells (HUVEC); test: Nitric oxide production by HUVEC (nitrite in culture medium, Griess reaction); assay type: cell-based; conditions: for production of nitric oxide by HUVEC (in words): 48 hour incubation
Description: The culture medium used was Medium 200 (Cascade Biologics Inc.) supplemented with Low Serum Growth Supplement (Cascade Biologics Inc.) and 20% fetal calf serum (DAP).
The cocoa procyanidins evaluated were the epicatechin monomer, the dimer, the trimer, the tetramer, the pentamer, and the heptamer. The nitrite content of cocoa procyanidins were evaluated. At the maximal concentration used (100 ? g/ml), no nitrite was detected.
Human umbilical vein endothelial cells (HUVEC) were purchased at primary culture stage from Cascade Biologics Inc. (Portland). Cells were cultured in Medium supplemented with Low Serum Growth Supplement (LSGS) and 20% Fetal Calf Serum (FCS) in 75 cm^2 flasks. The cells were seeded for a week following treatment with trypsin-EDTA (2 ml/flask) at 37° C. under 5% CO2 atmosphere. Trypsin was neutralized upon addition of 3 ml. FCS.
The cell suspension was centrifuged for 10 min. at 1200 rpm and the cell pellet was resuspended in the culture medium described above.
Nitric oxide synthase activity was assessed by measuring the nitrite concentration in the culture medium. HUVEC were used between passage 2 to 13. Cells were cultured in 24-well culture plates at the concentration of 5×10^5 cells ml in Medium 200 containing LSGS (300 μl per well), and 20% CS. After a 24 hour to 48 hour incubation period at 37° C. under a 5% CO2 atmosphere, the cells were used confluent (2.5×10^6 cells). Medium was removed and fresh was added.
Cocoa procyanidin monomer and oligomers were added to the culture medium at 100 μg/ml, 10 μg/ml or 1 μg/ml (final concentration). Controls consisted of cells cultured without the procyanidins. Reference compounds included acetylcholine, ionomycin (NO synthase stimulator via calcium entry), lipopolysaccharide (NO synthase inductor), and N-methyl L-arginine acetate (inhibitor of NO synthase). The reference compounds were used in order to evidence nitrite production from endothelial NO synthesis.
NO production was estimated by measurement of nitrite (NO2) concentration in culture supernatants according to the Griess reaction. Briefly, 50 μl of conditional medium were incubated with 150 μl of Griess reagent (1% sulfanilamide in 30% acetic acid/0.1% N-(1-naphtyl)-ethylenediamine dihydrochloride in 60% acetic acid) at room temperature for 2 min. The absorbance at 540 nm was determined in a Labsystems MCC/340 multiskan. Nitrite concentration was determined by using sodium nitrite as standard and analyzed using ΔSOFT 2.12 software. The cell-free medium and 100 μg/ml of procyanidins contained no detectable nitrite concentrations.
Raw Data^1: Showing the Effect of Cocoa Procyanidins On Nitric Oxide Production by HUVEC ^1Results are expressed as μmol nitrite/10^6 cells/48 h

[2] = system: Aortic rings from New Zealand white rabbits; test: Endothelium dependent relaxation of pre-contracted rabbit aortic rings in organ baths
Description: Aortic rings from New Zealand white rabbits were set up in 20 ml organ baths. […] The cocoa procyanidins tested were the monomer, dimer, trimer, tetramer, pentamer, hexamer.
Rings were incubated for 30′ with these cocoa procyanidins (10^−5M) and re-tested with Ach and cocoa procyanidins (10^−7 to 10^−4). Incubation of the tissue with these cocoa procyanadin(s) attenuated EDR evoked by both the cocoa procyanidins and Ach acutely. The maximum relaxation to Ach pre-incubation, 49±5%; post pentamer incubation, 2±1.4%; post combo 2 incubation, 0.8±0.8%: to pentamer pre-incubation, 46.5±4.5%; post incubation, 6.8±3.2%: to combo 2 pre-incubation, 54.3±7%; post incubation, 1.7±1.1%, n=5).

[3] = system: arterial blood pressure of anesthetized guinea-pigs; test: Arterial blood pressure of anesthetized guinea-pigs after intravenous injection; assay type: in vivo; conditions: for Hypertension (%)* Exp 1 / Hypertension (%)* Exp 2 / Hypertension (%)* Exp 3 / Hypertension (%)* Exp 4 / Hypertension (%)* Exp 5 / Hypertension (%)* Exp 6: % of control mean arterial blood pressure
Description: Guinea-pigs (around 400 g body weight, male and female) were anesthetized upon injection of 40 mg/kg sodium pentobarbital. The carotid artery was canulated for monitoring of the arterial blood pressure through a Gould pressure transducer (Model P500). Each of the six cocoa procyanidins, at concentrations of 1, 3, 10, and 25 mg/kg, was injected intravenously through the jugular vein. Alterations in blood pressure were recorded on a polygraph.
No marked effect of the vehicle containing DMSO was noted when the dose of 25 mg/kg of the cocoa procyanidin was used (15±5%).
The effects of administering of 1, 3, 10, or 25 mg/kg cocoa procyanidins on arterial blood pressure of anesthetized guinea-pigs was investigated. Upon intravenous injection, the procyanidins monomer and dimer evoked a decrease in blood pressure of about 20%, i.e., not markedly different from injection of solvent alone (15±5%, n=5). […] The rank of potency of the various cocoa procyanidins, considering the highest dose used, was as follows: hexamer=tetramer>pentamer>trimer.

[4] = preliminary experiments, single dose 10^−5 M, rings pre-contracted with norepinephine 10^−5 M

CC(=O)OCC[N+](C)(C)C [Acetylcholine, acetylcholine]
Nitric Oxide Production by HUVEC, Exp. 1 ([1]; Acetylcholine 10^−5 M): 2.5 μmol nitrite/10^6 cells/48 h | Nitric Oxide Production by HUVEC, Exp. 2 ([1]; Acetylcholine 10^−5 M): 2.6 μmol nitrite/10^6 cells/48 h | Nitric Oxide Production by HUVEC, Exp. 3 ([1]; Acetylcholine 10^−5 M): 2.8 μmol nitrite/10^6 cells/48 h | Nitric Oxide Production by HUVEC, Mean ([1]; Acetylcholine 10^−5 M): 2.6 μmol nitrite/10^6 cells/48 h | % Relaxation ([2]; acute exposure, dose 10^−5 M): 49 ± 5.1% | % Relaxation ([2]; acute exposure, dose 10^−6 M): 42.2 ± 4.2% | % Relaxation ([2]; acute exposure, dose 10^−7 M): 15.2 ± 2.6% | maximum relaxation to Ach ([2]; pre-incubation, n=5): 49±5% | % Relaxation [2, 4]: 68%

C[C@H](CCC(=O)O)C[C@H](C)C[C@H](C)C(=O)/C=C(\O)[C@H](C)C[C@H](C)C/C=C/[C@@H](C)[C@@H](O)[C@@H](C)[C@@H](O)C[C@@H]1CC[C@@](C)([C@H]2CC[C@@](C)([C@@H](C)O)O2)O1 [Ionomycin, ionomycin, reference compound]
production of nitric oxide by HUVEC (in words) ([1]; 1 μM): marked production of nitric oxide | Nitric Oxide Production by HUVEC, Exp. 1 ([1]; Ionomycin 1 μM): 7.8 μmol nitrite/10^6 cells/48 h | Nitric Oxide Production by HUVEC, Exp. 2 ([1]; Ionomycin 1 μM): 6.3 μmol nitrite/10^6 cells/48 h | Nitric Oxide Production by HUVEC, Exp. 3 ([1]; Ionomycin 1 μM): 5.4 μmol nitrite/10^6 cells/48 h | Nitric Oxide Production by HUVEC, Mean ([1]; Ionomycin 1 μM): 6.5 μmol nitrite/10^6 cells/48 h

CC(=O)O.CN[C@@H](CCCNC(=N)N)C(=O)O [LNMA, N-methyl L-arginine acetate, reference compound]
production of nitric oxide by HUVEC evoked by ionomycin and lipolysaccharide (in words) ([1]; N-methyl L-arginine added to the incubation medium): blocked

Oc1cc(O)c2c(c1)O[C@H](c1ccc(O)c(O)c1)[C@H](O)C2 [Monomer, epicatechin]
production of NO from HUVEC, dose dependence (in words) ([1]; 1, 10, 100 μg/ml): marked production but only at 100 μg/ml concentration | Nitric Oxide Production by HUVEC, Exp. 1 ([1]; cocoa procyanidin 1 μg/ml): 2.3 μmol nitrite/10^6 cells/48 h | Nitric Oxide Production by HUVEC, Exp. 2 ([1]; cocoa procyanidin 1 μg/ml): 2.5 μmol nitrite/10^6 cells/48 h | Nitric Oxide Production by HUVEC, Exp. 3 ([1]; cocoa procyanidin 1 μg/ml): 2.6 μmol nitrite/10^6 cells/48 h | Nitric Oxide Production by HUVEC, Mean ([1]; cocoa procyanidin 1 μg/ml): 2.5 μmol nitrite/10^6 cells/48 h | Nitric Oxide Production by HUVEC, Exp. 1 ([1]; cocoa procyanidin 10 μg/ml): 2.7 μmol nitrite/10^6 cells/48 h | Nitric Oxide Production by HUVEC, Exp. 2 ([1]; cocoa procyanidin 10 μg/ml): 2.8 μmol nitrite/10^6 cells/48 h | Nitric Oxide Production by HUVEC, Exp. 3 ([1]; cocoa procyanidin 10 μg/ml): 2.6 μmol nitrite/10^6 cells/48 h | Nitric Oxide Production by HUVEC, Mean ([1]; cocoa procyanidin 10 μg/ml): 2.7 μmol nitrite/10^6 cells/48 h | Nitric Oxide Production by HUVEC, Exp. 1 ([1]; cocoa procyanidin 100 μg/ml): 5.4 μmol nitrite/10^6 cells/48 h | Nitric Oxide Production by HUVEC, Exp. 2 ([1]; cocoa procyanidin 100 μg/ml): 5.9 μmol nitrite/10^6 cells/48 h | Nitric Oxide Production by HUVEC, Exp. 3 ([1]; cocoa procyanidin 100 μg/ml): 5.7 μmol nitrite/10^6 cells/48 h | Nitric Oxide Production by HUVEC, Mean ([1]; cocoa procyanidin 100 μg/ml): 5.7 μmol nitrite/10^6 cells/48 h | potency of the various procyanidins, NO production (rank) ([1]; highest dose used, 100 μg/ml): dimer>trimer>heptamer=pentmer=tetramer>monomer; also recorded: dimer>trimer>hexamer=pentamer=tetramer>monomer | Hypertension (%)* Exp 1 ([3]; 1 mg/kg intravenously): 55.32% | Hypertension (%)* Exp 2 ([3]; 1 mg/kg intravenously): 70.31% | Hypertension (%)* Exp 3 ([3]; 1 mg/kg intravenously): 70.27% | Hypertension (%)* Exp 4 ([3]; 1 mg/kg intravenously): 75.99% | Hypertension (%)* Exp 5 ([3]; 1 mg/kg intravenously): 71.92% | Hypertension (%)* Exp 6 ([3]; 1 mg/kg intravenously): 77.97% | Hypertension (%)* Exp 1 ([3]; 3 mg/kg intravenously): 62.99% | Hypertension (%)* Exp 2 ([3]; 3 mg/kg intravenously): 72.62% | Hypertension (%)* Exp 3 ([3]; 3 mg/kg intravenously): 74.59% | Hypertension (%)* Exp 4 ([3]; 3 mg/kg intravenously): 73.33% | Hypertension (%)* Exp 5 ([3]; 3 mg/kg intravenously): 76.04% | Hypertension (%)* Exp 6 ([3]; 3 mg/kg intravenously): 70.44% | Hypertension (%)* Exp 1 ([3]; 10 mg/kg intravenously): 58.95% | Hypertension (%)* Exp 2 ([3]; 10 mg/kg intravenously): 66.53% | Hypertension (%)* Exp 3 ([3]; 10 mg/kg intravenously): 70.06% | Hypertension (%)* Exp 4 ([3]; 10 mg/kg intravenously): 65.79% | Hypertension (%)* Exp 5 ([3]; 10 mg/kg intravenously): 70.69% | Hypertension (%)* Exp 6 ([3]; 10 mg/kg intravenously): 66.21% | Hypertension (%)* Exp 1 ([3]; 25 mg/kg intravenously): 46.93% | Hypertension (%)* Exp 2 ([3]; 25 mg/kg intravenously): 55.14% | Hypertension (%)* Exp 3 ([3]; 25 mg/kg intravenously): 63.08% | Hypertension (%)* Exp 4 ([3]; 25 mg/kg intravenously): 53.95% | Hypertension (%)* Exp 5 ([3]; 25 mg/kg intravenously): 65.91% | Hypertension (%)* Exp 6 ([3]; 25 mg/kg intravenously): 58.66% | rank of potency of the various cocoa procyanidins, hypotension ([3]; considering the highest dose used): hexamer=tetramer>pentamer>trimer>dimer=monomer | decrease in blood pressure ([3]; intravenous injection, solvent alone 15±5%): about 20% | % Relaxation [2, 4]: 0%

lipopolysaccharide [LPS, reference compound]
production of nitric oxide by HUVEC (in words) ([1]; 100 ng/ml): marked production of nitric oxide | Nitric Oxide Production by HUVEC, Mean ([1]; LPS 100 mg/ml): 14.4 μmol nitrite/10^6 cells/48 h | Nitric Oxide Production by HUVEC, Exp. 1 ([1]; LPS 100): 15.6 μmol nitrite/10^6 cells/48 h | Nitric Oxide Production by HUVEC, Exp. 2 ([1]; LPS 100): 14.3 μmol nitrite/10^6 cells/48 h | Nitric Oxide Production by HUVEC, Exp. 3 ([1]; LPS 100): 13.2 μmol nitrite/10^6 cells/48 h
